What was measured:
[1] = biological target: h5-HT2A receptor (Homo sapiens, UniProt P28223); assay: Radioligand binding, 5-HT2A receptor ([3H]ketanserin); settings: for fold difference in 5-HT2A receptor affinity between Ψ derivative and its 2,4,5-trisubstituted counterpart: TMA-6 vs TMA-2, Ψ-2C-O-16 vs 2C-O-16, Ψ-MALM vs MALM: higher affinity of the Ψ derivative; for Selectivity (binding ratio) 5-HT2A/5-HT1A: preference for 5-HT2A (Ki 5-HT1A divided by Ki 5-HT2A); for Selectivity (binding ratio) 5-HT2A/5-HT2C: preference for 5-HT2A (Ki 5-HT2C divided by Ki 5-HT2A)
[2] = biological target: T1, human 5-HT2A receptor (Homo sapiens, UniProt P28223); assay: Activation potency and efficacy at the 5-HT2A receptor (FLIPR calcium, NIH-3T3 cells); type: cell-based; settings: for Emax: NIH3T3, relative to 5-HT (100%), read-out: h5-HT2A activation efficacy Emax ± SD
T1 construct: expressed in transfected cells; host or cells: NIH-3T3 mouse embryonic fibroblasts
Experimental: The activation potency and efficacy at the 5-HT2A receptor were determined as previously described by [Luethi et al. (2018)]. In short, mouse embryonic fibroblasts (NIH-3T3 cells) stably transfected with the human 5-HT2A receptor were seeded in poly-D-lysine-coated 96 well plates at a density of 70,000 cells per 100 μL. Next, the cells were incubated in HEPES-Hank’s Balanced Salt Solution (HBSS) buffer (Gibco) for 1 h at 37 °C; the cells were then incubated with 100 μL of dye solution (fluorescence imaging plate reader [FLIPR] calcium 5 assay kit; Molecular Devices, Sunnyvale, CA, United States) per well for 1 h at 37 °C. The plate was then inserted into the FLIPR and 25 μL of the test compounds diluted in HEPES-HBSS buffer containing […] probenecid were added online. Increase of the fluorescence signal was measured and the activation potency (EC50) was calculated from the dose-response curves using nonlinear regression. The activation efficacy was calculated relative to 5-HT activity (defined as 100% activity).

[3] = biological target: T2, h5-HT2C receptor (Homo sapiens, UniProt P28335); assay: Radioligand binding, 5-HT2C receptor ([3H]mesulergine)
T2 sequence (P28335 33-458): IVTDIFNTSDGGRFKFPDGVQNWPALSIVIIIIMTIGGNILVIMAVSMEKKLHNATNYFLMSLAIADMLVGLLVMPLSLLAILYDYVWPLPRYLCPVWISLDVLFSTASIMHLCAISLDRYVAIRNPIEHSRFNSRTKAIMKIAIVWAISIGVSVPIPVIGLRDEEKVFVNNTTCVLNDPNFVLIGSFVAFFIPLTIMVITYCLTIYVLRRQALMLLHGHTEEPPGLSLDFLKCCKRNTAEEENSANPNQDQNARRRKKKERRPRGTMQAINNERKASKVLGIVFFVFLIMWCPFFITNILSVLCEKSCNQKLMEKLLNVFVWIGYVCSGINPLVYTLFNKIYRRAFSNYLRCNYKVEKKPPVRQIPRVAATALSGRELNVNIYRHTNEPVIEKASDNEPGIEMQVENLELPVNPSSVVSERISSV

[4] = biological target: T3, hα2A adrenergic receptor (Homo sapiens, UniProt P08913); assay: Radioligand binding, α2A adrenergic receptor ([3H]rauwolscine)
T3 sequence (P08913 1-465): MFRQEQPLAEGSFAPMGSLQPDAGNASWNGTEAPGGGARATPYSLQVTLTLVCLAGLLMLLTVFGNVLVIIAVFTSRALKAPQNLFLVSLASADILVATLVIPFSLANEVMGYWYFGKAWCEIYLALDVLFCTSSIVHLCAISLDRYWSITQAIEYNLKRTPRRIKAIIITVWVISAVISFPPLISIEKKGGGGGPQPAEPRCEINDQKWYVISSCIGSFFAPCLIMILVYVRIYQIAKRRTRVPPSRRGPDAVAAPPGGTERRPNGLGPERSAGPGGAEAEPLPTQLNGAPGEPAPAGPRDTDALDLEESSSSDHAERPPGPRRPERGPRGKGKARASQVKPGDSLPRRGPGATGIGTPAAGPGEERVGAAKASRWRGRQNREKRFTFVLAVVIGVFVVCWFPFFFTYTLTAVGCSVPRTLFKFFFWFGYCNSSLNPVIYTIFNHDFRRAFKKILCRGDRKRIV

[5] = biological target: hD2 receptor (Homo sapiens, UniProt P14416); assay: Radioligand binding, dopaminergic D2 receptor ([3H]spiperone)
Sequence of hD2 receptor (P14416 whole entry): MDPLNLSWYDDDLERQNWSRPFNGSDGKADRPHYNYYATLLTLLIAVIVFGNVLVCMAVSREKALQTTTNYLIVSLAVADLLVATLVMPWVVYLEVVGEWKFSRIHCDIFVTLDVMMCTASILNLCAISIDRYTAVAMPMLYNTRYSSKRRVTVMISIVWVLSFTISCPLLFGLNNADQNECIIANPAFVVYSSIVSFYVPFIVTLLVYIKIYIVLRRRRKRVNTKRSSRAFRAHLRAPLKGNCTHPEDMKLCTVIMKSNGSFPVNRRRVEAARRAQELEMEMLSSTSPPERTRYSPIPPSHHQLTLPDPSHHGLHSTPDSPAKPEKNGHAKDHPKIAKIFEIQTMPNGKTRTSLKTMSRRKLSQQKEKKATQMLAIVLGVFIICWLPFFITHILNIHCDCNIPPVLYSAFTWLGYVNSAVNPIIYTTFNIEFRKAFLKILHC

Sequence of h5-HT2A receptor (P28223 whole entry): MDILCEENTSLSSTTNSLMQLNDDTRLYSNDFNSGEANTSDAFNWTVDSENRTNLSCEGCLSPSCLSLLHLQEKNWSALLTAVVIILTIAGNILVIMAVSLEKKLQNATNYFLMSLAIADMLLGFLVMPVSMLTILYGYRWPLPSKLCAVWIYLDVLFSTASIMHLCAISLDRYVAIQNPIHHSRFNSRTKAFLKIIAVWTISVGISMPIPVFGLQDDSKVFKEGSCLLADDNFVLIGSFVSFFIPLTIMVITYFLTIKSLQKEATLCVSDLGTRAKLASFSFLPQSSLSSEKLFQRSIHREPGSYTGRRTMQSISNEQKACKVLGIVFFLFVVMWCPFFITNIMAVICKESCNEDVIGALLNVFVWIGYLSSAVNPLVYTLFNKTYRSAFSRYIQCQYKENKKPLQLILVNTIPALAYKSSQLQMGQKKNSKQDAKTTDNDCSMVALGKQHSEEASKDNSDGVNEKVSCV
T1 sequence (P28223 whole entry): as above

Row | Compound | Ki [1] [µM] | fold difference in 5-HT2A receptor affinity between Ψ derivative and its 2,4,5-trisubstituted counterpart [1] | Selectivity (binding ratio) 5-HT2A/5-HT1A [1] | Selectivity (binding ratio) 5-HT2A/5-HT2C [1] | EC50 [2] [µM] | Emax [2] [%] | Ki [3] [µM] | Ki [4] [µM] | Ki [5] [µM] | fold increase in 5-HT2A activation potency over non-fluorinated counterpart Ψ-2C-O-2 [2] [fold]
1 | COc1cc(OC)c(CC(C)N)c(OC)c1 (centres unmarked) [TMA-6, 2,4,6-trimethoxyamphetamine] | 0.27 ± 0.018 | 2–5 fold | >21 | 6.7 | 0.07 ± 0.032 | 61 ± 12 | 1.8 | 3.1 | > 6 | 
2 | COc1cc(OC)c(CCN)c(OC)c1 [Ψ-2C-O-1, 2,4,6-trimethoxyphenethylamine] | 0.3 ± 0.04 |  | 3.2 | 4 | 0.11 ± 0.02 | 84 ± 13 | 1.2 | 0.78 ± 0.07 | > 6 | 
3 | CCOc1cc(OC)c(CCN)c(OC)c1 [Ψ-2C-O-2, 2,6-dimethoxy-4-ethoxyphenethylamine] | 0.4 ± 0.28 |  | 1.8 | 3.8 | 0.099 ± 0.008 | 53 ± 4 | 1.5 | 0.67 ± 0.06 | > 6 | 
4 | C=C(C)COc1cc(OC)c(CCN)c(OC)c1 [Ψ-2C-O-3, 2,6-dimethoxy-4-methallyloxyphenethylamine] | 0.032 ± 0.008 |  | 32 | 6.6 | 0.2 ± 0.02 | 23 ± 10 | 0.21 ± 0.14 | 0.28 ± 0.03 | > 6 | 
5 | C=CCOc1cc(OC)c(CCN)c(OC)c1 [Ψ-2C-O-16, 4-allyloxy-2,6-dimethoxyphenethylamine] | 0.054 ± 0.004 | 2–5 fold | 17 | 9.3 | 0.039 ± 0.019 | 49 ± 20 | 0.5 ± 0.23 | 0.31 ± 0.02 | > 6 | 
6 | COc1cc(OCCF)cc(OC)c1CCN [Ψ-2C-O-21, 2,6-dimethoxy-4-(2-fluoroethoxy)phenethylamine] | 0.97 ± 0.19 |  | 1.6 | 3.6 | 0.032 ± 0.002 | 55 ± 14 | 3.5 |  | > 6 | 3
7 | COc1cc(OCC(F)F)cc(OC)c1CCN [Ψ-2C-O-21.5, 4-(2,2-difluoroethoxy)-2,6-dimethoxyphenethylamine] | 1.6 |  | 0.8 | 1.8 | 0.74 ± 0.08 | 31 ± 5 | 2.8 | 1 | > 6 | 
8 | COc1cc(OCC(F)(F)F)cc(OC)c1CCN [Ψ-2C-O-22, 2,6-dimethoxy-4-(2,2,2-trifluoroethoxy)phenethylamine] | 0.6 ± 0.06 |  | 4 | 3.7 | 3.4 | 41 ± 8 | 2.2 | 1.5 | > 6 | 
9 | COc1cc(OCc2ccccc2)cc(OC)c1CCN [Ψ-2C-O-27, 4-benzyloxy-2,6-dimethoxyphenethylamine] | 0.008 ± 0.001 |  | 280 | 15 | 0.41 ± 0.16 | 42 ± 8 | 0.11 ± 0.01 | 0.41 ± 0.02 | > 6 | 
